From ChEMBL document CHEMBL1201862, “PubChem BioAssay data set” (2004)
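Cultured in 96-well plates, cells were exposed to test compound for 48 hours across five concentrations. GI50 is the concentration that inhibits growth by half.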 Activity calls are given as the source filed them. Cut-off read from the data, not from the text of the source: active = GI50 up to about 1.1 µM and inactive = higher.

Key:
Experiment in all cases: DTP human tumour cell line panel, 48 h
DLD-1 = system: DLD-1
LXFL 529 = system: LXFL 529
M19-MEL = system: M19-MEL
RXF 631 = system: RXF 631
KM-20L2 = system: KM-20L2
DMS-273 = system: DMS-273
XF498 = system: XF498
SNB-78 = system: SNB-78
HOP-18 = system: HOP-18

Structure (SMILES) | GI50 (DLD-1) | GI50 (LXFL 529) | GI50 (M19-MEL) | GI50 (RXF 631) | GI50 (KM-20L2) | GI50 (DMS-273) | GI50 (XF498) | GI50 (SNB-78) | GI50 (HOP-18)
C=C(C)C1CC=C(C(=O)O)CC1 (centres undefined) | 1490 µM (inactive) | 1490 µM (inactive) | 1160 µM (inactive) | 839 µM (inactive) | 1410 µM (inactive) | 1340 µM (inactive) | – | – | –
N#CC(c1ccc(Cl)cc1)c1cccc(Cl)n1 (centres undefined) | 83 µM (inactive) | 30.3 µM (inactive) | 60.1 µM (inactive) | – | 80.4 µM (inactive) | – | 24.8 µM (inactive) | 67.3 µM (inactive) | –
CC1=CC(=O)NP(=O)(Oc2ccc(C)cc2)N1 (centres undefined) | > 100 µM (inactive) | > 100 µM (inactive) | > 100 µM (inactive) | > 100 µM (inactive) | > 100 µM (inactive) | > 100 µM (inactive) | > 100 µM (inactive) | > 100 µM (inactive) | > 100 µM (inactive)
CCCOCN1COCN/C1=N\C#N | 70.1 µM (inactive) | > 100 µM (inactive) | 30.9 µM (inactive) | – | 36.2 µM (inactive) | 18 µM (inactive) | > 100 µM (inactive) | > 100 µM (inactive) | 32.8 µM (inactive)
COc1ccccc1/N=N/c1c(-c2ccccc2)nn(C(=O)CC(=O)Nc2cccc(C)c2)c1-c1ccccc1 | 25.8 µM (inactive) | 15.4 µM (inactive) | 35.8 µM (inactive) | 7.4 µM (inactive) | 27.3 µM (inactive) | 34.5 µM (inactive) | 16.4 µM (inactive) | 61.8 µM (inactive) | > 100 µM (inactive)
NC(=S)N/N=C/c1cn(CCCl)c2ccccc12 | 71.9 µM (inactive) | 39.7 µM (inactive) | 52.1 µM (inactive) | – | – | – | – | > 100 µM (inactive) | 61.9 µM (inactive)
O=C1C2=C(CCCCC2)C2CCCCC12O (centres undefined) | > 100 µM (inactive) | > 100 µM (inactive) | > 100 µM (inactive) | – | > 100 µM (inactive) | > 100 µM (inactive) | > 100 µM (inactive) | > 100 µM (inactive) | –
COc1cc(NS(C)(=O)=O)ccc1Nc1c2ccccc2nc2c1[nH]c1ccc(NC3OC(CO)C(O)C(O)C3O)cc12 (centres undefined) | 0.293 µM (active) | 0.9 µM (active) | 0.165 µM (active) | – | 0.163 µM (active) | < 0.01 µM (active) | – | 1.27 µM (inactive) | 0.048 µM (active)
CCOC(=O)[C-]([N+]#N)[Si](C)(C)C | > 100 µM (inactive) | – | > 100 µM (inactive) | – | > 100 µM (inactive) | > 100 µM (inactive) | 56.9 µM (inactive) | > 100 µM (inactive) | > 100 µM (inactive)
NC(=O)C(=O)N/N=C1\C(=O)N(c2ccc(Cl)cc2Cl)C(=O)C1C(=O)Nc1ccc(Cl)cc1Cl (centres undefined) | > 100 µM (inactive) | > 100 µM (inactive) | > 100 µM (inactive) | – | > 100 µM (inactive) | > 100 µM (inactive) | > 100 µM (inactive) | > 100 µM (inactive) | 76.9 µM (inactive)
c1ccc(COCC2OC3c4ccccc4COC3C2OCc2ccccc2)cc1 (centres undefined) | > 100 µM (inactive) | – | > 100 µM (inactive) | > 100 µM (inactive) | > 100 µM (inactive) | 83.6 µM (inactive) | – | > 100 µM (inactive) | > 100 µM (inactive)
Cc1cc(=O)n(-c2ccccc2)c(=O)o1 | > 100 µM (inactive) | > 100 µM (inactive) | > 100 µM (inactive) | – | > 100 µM (inactive) | > 100 µM (inactive) | – | > 100 µM (inactive) | > 100 µM (inactive)
CC1OC(n2cc(C(F)(F)F)c(=O)[nH]c2=O)C=CC1=O (centres undefined) | 18.8 µM (inactive) | 17.1 µM (inactive) | 20.3 µM (inactive) | 12.7 µM (inactive) | 22.3 µM (inactive) | – | 16.6 µM (inactive) | 15.8 µM (inactive) | –
COC(=O)C1=C(C(=O)OC)C2C(C)=CC(C)=CN2C(C#N)=C(SC)S1 (centres undefined) | 22.6 µM (inactive) | 16.9 µM (inactive) | 17.7 µM (inactive) | – | 32.7 µM (inactive) | 31.8 µM (inactive) | – | 41.3 µM (inactive) | –
O=C(COc1ccc(Cl)cc1)N1CCN(C(=O)COc2ccc(Cl)cc2)c2ccccc21 | 64 µM (inactive) | 37.4 µM (inactive) | 38.1 µM (inactive) | – | > 100 µM (inactive) | 39.2 µM (inactive) | 24.5 µM (inactive) | 45.4 µM (inactive) | 71.3 µM (inactive)
CC(=O)Nc1c(Nc2ccccc2)[nH]c(C)nc1=S | > 100 µM (inactive) | > 100 µM (inactive) | – | – | > 100 µM (inactive) | > 100 µM (inactive) | > 100 µM (inactive) | > 100 µM (inactive) | –
O=C(C=P(c1ccccc1)(c1ccccc1)c1ccccc1)CC(=S)CC(=O)C=P(c1ccccc1)(c1ccccc1)c1ccccc1 | 4.58 µM (inactive) | 2.77 µM (inactive) | 4.57 µM (inactive) | > 100 µM (inactive) | 4.29 µM (inactive) | 2.88 µM (inactive) | – | – | 2.59 µM (inactive)
CC(=O)OCC1OC(N2C(=O)C(=O)c3ccccc32)C(OC(C)=O)C(OC(C)=O)C1OC(C)=O (centres undefined) | > 100 µM (inactive) | > 100 µM (inactive) | 91.2 µM (inactive) | > 100 µM (inactive) | > 100 µM (inactive) | > 100 µM (inactive) | – | – | > 10 µM (inactive)
CC(C)OC(=O)C1Cc2c([nH]c3ccccc23)C(c2ccccc2)N1 (centres undefined) | 23.6 µM (inactive) | 79.6 µM (inactive) | > 100 µM (inactive) | – | > 100 µM (inactive) | > 100 µM (inactive) | > 100 µM (inactive) | > 100 µM (inactive) | –
C[N+](C)(C)CC(=O)N/N=C(\CCC(=O)NCCc1ccccc1)CC(=O)c1ccccc1 | > 100 µM (inactive) | > 100 µM (inactive) | > 100 µM (inactive) | – | > 100 µM (inactive) | > 100 µM (inactive) | > 100 µM (inactive) | > 100 µM (inactive) | > 100 µM (inactive)
CC[C@H]1[C@@H](C)C=C[C@@H](C)N1S(=O)(=O)c1ccc(C)cc1 | – | 73.8 µM (inactive) | > 100 µM (inactive) | 16.7 µM (inactive) | > 100 µM (inactive) | > 100 µM (inactive) | 14.1 µM (inactive) | > 100 µM (inactive) | –
CCOC12OC3=C(CC1CC1=C(CCC1=O)O2)C(=O)CC3 (centres undefined) | > 100 µM (inactive) | > 100 µM (inactive) | > 100 µM (inactive) | > 100 µM (inactive) | > 100 µM (inactive) | > 100 µM (inactive) | – | > 100 µM (inactive) | > 100 µM (inactive)
O=C1C2C3C=C4c5ccccc5N(c5ccccc5)C4(C2C(=O)N1c1ccc(Cl)cc1)[C@H]1C(=O)N(c2ccc(Cl)cc2)C(=O)[C@@H]31 (some centres undefined) | > 100 µM (inactive) | > 100 µM (inactive) | > 100 µM (inactive) | 6.49 µM (inactive) | > 100 µM (inactive) | > 100 µM (inactive) | > 100 µM (inactive) | > 100 µM (inactive) | > 100 µM (inactive)
Cc1ccc(-c2cc(O)c3cc4c(cc3n2)OCO4)cc1 | 0.859 µM (active) | 0.748 µM (active) | 0.805 µM (active) | – | 1.67 µM (inactive) | 1.35 µM (inactive) | – | – | 3.07 µM (inactive)
COc1cc(CCc2cccnc2)cc(OC)c1OC | > 100 µM (inactive) | > 100 µM (inactive) | > 100 µM (inactive) | – | > 100 µM (inactive) | > 100 µM (inactive) | – | > 100 µM (inactive) | > 100 µM (inactive)
